Source: patent US8552069B2, “Method for treatment of obesity, dyslipidemia, fatty liver or insulin resistance syndrome comprising camphene as active ingredient” (Industry-Academic Cooperation Foundation, Yonsei University, priority 2009, dated 2013)
Marks after values point to notes of the source that are not given here.

Key:
NF-κB = conditions: mouse macrophage cells (RAW 264.7); cited from earlier work
UCP3 = test: RT-PCR mRNA expression in visceral fat tissue: UCP3; format: in vivo, mouse; conditions: versus HFD group, FIG. 7
Method: (§1) After adding 1 mL of TRIzol solution per 0.1 g of epididymal fat tissue, centrifugation was performed at 4° C. and 12,000×g for 10 minutes. The supernatant was transferred to a fresh tube and vortexed after adding 200 μL of chloroform. After repeating this procedure twice, the supernatant was transferred to a fresh tube and isopropanol was added to the supernatant at a ratio of 1:1. After shaking strongly for 10 times and keeping at room temperature for 10 minutes, centrifugation was performed at 4° C. and 12,000×g for 10 minutes. After removing the supernatant and adding 1 mL of 70% ethanol to the remaining pellets, centrifugation was performed at 4° C. and 7,500×g for 5 minutes. After removing ethanol, the RNA pellets held in the tube were dried at room temperature for 5 minutes and dissolved using nuclease-free water. The concentration of the extracted RNA was measured at 260 nm and 280 nm using a UV/VIS spectrophotometer (Beckman Coulter, DU730), and the integrity of RNA was analyzed by agarose gel electrophoresis.
(§2) cDNA was synthesized by performing reverse transcription for the RNA sample extracted from the epididymal fat tissue using oligo-dT primer and SuperScript reverse transcriptase (GIBCO BRL, Gaithersburg, Md., USA). […]

C/EBPα = test: RT-PCR mRNA expression in epididymal (visceral) fat tissue: C/EBPα; format: in vivo, mouse; conditions: as compared to the high-fat diet group, FIGS. 5a and 5b
Method: as §1, §2

aP2 = test: RT-PCR mRNA expression in epididymal (visceral) fat tissue: aP2; format: in vivo, mouse; conditions: as compared to the high-fat diet group, FIGS. 5a and 5b
Method: as §1, §2

TNFα = test: RT-PCR mRNA expression in visceral fat tissue: TNFα; format: in vivo, mouse; conditions: versus HFD group, FIGS. 6a and 6b
Method: as §1, §2

[1] = test system: Gram-positive bacteria, Gram-negative bacteria and fungi; conditions: cited from earlier work
C57BL/6J mice [2] = test: Body weight and visceral fat weight of mice fed high-fat diet containing camphene; format: in vivo, mouse; conditions: 0.2% camphene in high-fat diet, 10 weeks
Method: (§3) The obesity-inducing diet used in this example was high-fat diet (HFD: 40% fat calorie, 17 g lard+3% corn oil/100 g diet). Camphene-containing diet had the same composition as HFD, except that camphene was included at 0.2%. Normal diet (ND) was prepared with the composition of AIN-76 rodent diet (American Institute of Nutrition, Report of the American Institute of Nutrition ad hoc committee on standards for nutritional studies. J. Nutr. 107: 1340-1348, 1977) (see Table 1). (±)-Camphene was purchased from Sigma-Aldrich. [table] 5-week-old male C57BL/6J mice (Orient, Korea) were accustomed to the laboratory environment for 1 week while feeding solid feed. Then, they were randomly divided into high-fat diet control group and test group and bred for a total of 10 weeks. The diet was given between 10 and 11 a.m. every day together with water. Diet intake was measured every day and body weight was measured once in 3 days. In order to avoid transient body weight increase after feed intake, body weight was measured 2 hours after removing the feed. Feeding efficiency was calculated by dividing accumulated body weight gain during the test period, i.e. from the test diet was given first until the day when the mouse was sacrificed, by total diet intake. After fasting the test animal for at least 12 hours and anesthetizing with diethyl ether, blood, liver and visceral fat (epididymal fat, perirenal fat, mesenteric fat and retroperitoneal fat) were taken and weighed after washing with 0.1 M PBS (pH 7.4). Blood taken from the abdominal aorta was centrifuged at 1000×g for 15 minutes to separate the serum.

IL-6 = test: RT-PCR mRNA expression in visceral fat tissue: IL-6; format: in vivo, mouse; conditions: versus HFD group, FIGS. 6a and 6b
Method: as §1, §2

C57BL/6J mice [3] = test: Obesity-related biochemical indices in liver tissue of high-fat diet mice; format: in vivo, mouse; conditions: 10 weeks
Method: as §3, with “Sigma-Aldrich.” for “Sigma-Aldrich. [table]”, “serum. Total cholesterol, triglyceride and glucose levels in the serum were measured twice for each using a commercially available kit (Bio Clinical system), and insulin level was measured by ELISA using a mouse insulin kit (Shibayaki, Japan). Lipids were extracted from the liver tissue according to Folch et al.'s method. After adding 1 mL of distilled water to 0.25 g of liver tissue, the liver tissue was homogenized using a Polytron homogenizer (IKA-Werke GmbH & Co., Ultra-Turrax, Staufen, Germany). After adding 5 mL of chloroform:methanol solution (2:1, v/v) to the homogenate and mixing well, the mixture was centrifuged at 1000×g for 10 minutes. After adding 2 mL of chloroform:methanol solution (2:1, v/v) again to the supernatant, the same procedure was repeated to completely separate the lipid components of the liver. After adding 3 mL of chloroform:methanol:0.05% CaCl2 (3:48:47, v/v/v) solution to the remaining pellets and mixing well for 1 minute, followed by centrifugation at 1000×g for 10 minutes, the resulting pellets were completely dried with nitrogen gas. The dried lipids were dissolved in 1 mL of methanol and then analyzed. The same kit (Bio Clinical system) as the one used for the serum analysis was used to measure the triglyceride level of the liver tissue.” for “serum.”

C57BL/6J mice [4] = test: Obesity-related biochemical indices in blood (serum) of high-fat diet mice; format: in vivo, mouse; conditions: 10 weeks
Method: as §3, with “Sigma-Aldrich.” for “Sigma-Aldrich. [table]”, “serum. Total cholesterol, triglyceride and glucose levels in the serum were measured twice for each using a commercially available kit (Bio Clinical system), and insulin level was measured by ELISA using a mouse insulin kit (Shibayaki, Japan). Lipids were extracted from the liver tissue according to Folch et al.'s method. After adding 1 mL of distilled water to 0.25 g of liver tissue, the liver tissue was homogenized using a Polytron homogenizer (IKA-Werke GmbH & Co., Ultra-Turrax, Staufen, Germany). After adding 5 mL of chloroform:methanol solution (2:1, v/v) to the homogenate and mixing well, the mixture was centrifuged at 1000×g for 10 minutes. After adding 2 mL of chloroform:methanol solution (2:1, v/v) again to the supernatant, the same procedure was repeated to completely separate the lipid components of the liver. After adding 3 mL of chloroform:methanol:0.05% CaCl2 (3:48:47, v/v/v) solution to the remaining pellets and mixing well for 1 minute, followed by centrifugation at 1000×g for 10 minutes, the resulting pellets were completely dried with nitrogen gas. The dried lipids were dissolved in 1 mL of methanol and then analyzed. The same kit (Bio Clinical system) as the one used for the serum analysis was used to measure the triglyceride level of the liver tissue.” for “serum.”

3T3-L1 cells = test: Suppression of differentiation of 3T3-L1 preadipocytes into adipocytes (Oil Red O staining); format: cell-based, mouse; conditions: camphene 0.1, 1, 10, 50 and 100 μM, 14 days
Method: Mouse 3T3-L1 cells were used to investigate the effect of camphene on differentiation and growth of adipocytes. The preadipocytes, 3T3-L1 cells, were seeded on a 12-well plate and cultured to confluency using Dulbecco's modified Eagle's medium (DMEM) containing 1% penicillin-streptomycin, 1% nonessential amino acid and 10% fatal bovine serum (FBS), in a 5% CO2 incubator at 37° C. The 3T3-L1 cells grown to confluency were cultured for 2 days in a medium containing MDI (0.5 mM isobutylmethylxanthine, 1 μM dexamethasone and 1 μg/mL insulin) to differentiate them into adipocytes. Then, the cells were further cultivated in DMEM containing 1 μg/mL insulin to differentiate them into mature adipocytes. The cells were further cultured for 10 more days while replacing DMEM every other day to obtain fully differentiated adipocytes. From the first day when MDI was added to the 3T3-L1 cells, camphene was treated at concentrations of 0.1, 1, 10, 50 and 100 μM with 2-day intervals. (±)-Camphene purchased from Sigma-Aldrich was used after being dissolved in DMSO. Only DMSO was added to the negative control group. […] In order to measure the level of triglyceride contained in the differentiated 3T3-L1 cells, the stained lipid droplets were dissolved in 1 mL of isobutanol and OD value was measured at 600 nm.

UCP1 = test: RT-PCR mRNA expression in visceral fat tissue: UCP1; format: in vivo, mouse; conditions: versus HFD group, FIG. 7
Method: as §1, §2

PPARγ2 = test: RT-PCR mRNA expression in epididymal (visceral) fat tissue: PPARγ2; format: in vivo, mouse; conditions: as compared to the high-fat diet group, FIGS. 5a and 5b
Method: as §1, §2

[5] = liver tissue, camphene-administered group
[6] = blood, camphene-administered group

C=C1C2CCC(C2)C1(C)C (racemic) [camphene]
activity of the inflammation-inducing factor NF-κB (NF-κB): suppressing the activity
UCP3 gene expression in visceral fat tissue (UCP3): increased expression
C/EBPα mRNA expression in visceral fat tissue (C/EBPα): significantly decreased expression
aP2 mRNA expression in visceral fat tissue (aP2): significantly decreased expression
TNFα gene expression in visceral fat tissue (TNFα): decreased expression of TNFα and IL-6 genes back to the level of the ND group
growth of Gram-positive bacteria, Gram-negative bacteria and fungi [1]: inhibiting growth
lower accumulated body weight gain as compared to HFD control group (C57BL/6J mice [2]): 58%
lower final body weight as compared to HFD control group (C57BL/6J mice [2]): 33%
lower epididymal fat weight per body weight as compared to HFD (C57BL/6J mice [2]; P<0.001): 46%
lower mesenteric fat weight per body weight as compared to HFD (C57BL/6J mice [2]; P<0.001): 61%
lower perirenal fat weight per body weight as compared to HFD (C57BL/6J mice [2]; P<0.001): 76%
lower retroperitoneal fat weight per body weight as compared to HFD (C57BL/6J mice [2]; P<0.001): 48%
lower total visceral fat weight per body weight as compared to HFD (C57BL/6J mice [2]; P<0.001): 52%
IL-6 gene expression in visceral fat tissue (IL-6): decreased expression of TNFα and IL-6 genes back to the level of the ND group
lower cholesterol level in the liver tissue as compared to HFD (C57BL/6J mice [3]; 0.2% camphene in high-fat diet): 86%
lower free fatty acid level in the liver tissue as compared to HFD (C57BL/6J mice [3]; 0.2% camphene in high-fat diet): 73%
lower liver weight per body weight as compared to HFD (C57BL/6J mice [3]; 0.2% camphene in high-fat diet): 22%
lower triglyceride level in the liver tissue as compared to HFD (C57BL/6J mice [3]; 0.2% camphene in high-fat diet): 58%
Liver weight (C57BL/6J mice [3]; camphene-administered group): 4.3 ± 0.32^b g/100 g body wt
Cholesterol (C57BL/6J mice [3]; [5]): 10.3 ± 2.6^c μmol/g
Free fatty acid (C57BL/6J mice [3]; [5]): 6.5 ± 0.91^b μEq/g
Triglyceride (C57BL/6J mice [3]; [5]): 14.7 ± 2.3^c μmol/g
lower arteriosclerotic index as compared to HFD (C57BL/6J mice [4]; 0.2% camphene in high-fat diet): 59%
lower fasting blood sugar level as compared to HFD (C57BL/6J mice [4]; 0.2% camphene in high-fat diet): 10%
lower insulin resistance (IRI) as compared to HFD (C57BL/6J mice [4]; 0.2% camphene in high-fat diet): 40%
lower serum LDL+VLDL cholesterol level as compared to HFD (C57BL/6J mice [4]; 0.2% camphene in high-fat diet): 79%
lower serum free fatty acid level as compared to HFD (C57BL/6J mice [4]; 0.2% camphene in high-fat diet): 86%
lower serum insulin level as compared to HFD (C57BL/6J mice [4]; 0.2% camphene in high-fat diet): 32%
lower serum total cholesterol level as compared to HFD (C57BL/6J mice [4]; 0.2% camphene in high-fat diet): 60%
lower serum triglyceride level as compared to HFD (C57BL/6J mice [4]; 0.2% camphene in high-fat diet): 69%
IRI (insulin resistance index) (C57BL/6J mice [4]; 10^−3 pmol insulin × mmol glucose × L^−2, camphene-administered group): 1.11 ± 0.21^b
Arteriosclerotic index (C57BL/6J mice [4]; (total cholesterol − HDL cholesterol)/HDL cholesterol, camphene-administered group): 0.42 ± 0.03^b
Free fatty acid (C57BL/6J mice [4]; [6]): 197 ± 6.7^c μEq/L
HDL cholesterol (C57BL/6J mice [4]; [6]): 1.02 ± 0.04^c mmol/L
Insulin (C57BL/6J mice [4]; [6]): 0.85 ± 0.23^b ng/mL
LDL + VLDL cholesterol (C57BL/6J mice [4]; [6]): 0.44 ± 0.05^b mmol/L
Total cholesterol (C57BL/6J mice [4]; [6]): 1.55 ± 0.11^b mmol/L
Triglyceride (C57BL/6J mice [4]; [6]): 0.44 ± 0.05^b mmol/L
Glucose (C57BL/6J mice [4]; blood, fasting, camphene-administered group): 7.6 ± 0.51^ab mmol/L
differentiation of the preadipocytes (Oil Red O staining) (3T3-L1 cells; FIG. 1a): reduced the differentiation of the preadipocytes in a concentration-dependent manner
OD value (600 nm) of fats stained with Oil Red O (3T3-L1 cells; FIG. 1b): decreased in a concentration-dependent manner
UCP1 gene expression in visceral fat tissue (UCP1): increased expression
PPARγ2 mRNA expression in visceral fat tissue (PPARγ2): significantly decreased expression
